The nature of series [1]: LA-ICP-MS imaging, distribution and quantification of platinum in mouse whole-body sections. Format: in vivo, CD-1 mice. The settings on record: (R,R)-pyrodach-2 or derived Pt; treated mice. As to the method:
Five CD-1 mice were dosed with (R,R)-pyrodach-2, intravenous (IV), at a concentration of 90 mg/kg, and one additional mouse was dosed with vehicle (phosphate buffer). After dosing, the (R,R)-pyrodach-2 treated mice were euthanized at different time points (45 min, 3 hr, 12 hr, 24 hr, and 72 hr), and the control mouse was euthanized at 45 minutes post dosing. Subsequently, carcasses were snap frozen at −70° C. Slides of full body sagittal plane cross sections were prepared for the control, 45 min, and 24 hr mice. Laser Ablation Inductively Coupled Plasma Mass Spectrometry (LA-ICP-MS) was then used to scan the slides for the concentration of Pt (an atomic component of (R,R)-pyrodach-2) across the entire full body cross sections. Additional slides were prepared from adjacent positions and hematoxylin & eosin (H&E) stained to map the Pt signal to different organs and tissues.
To detect the Platinum element (Pt) by LA-ICP-MS imaging into mouse whole-body sections at 150 μm spatial resolution covering the entire sections in the different section planes for the animals: Treated 45 min, Treated 24 h and Control 45 min (3 sectioning levels per animal).
The mice were sectioned at 20 μm thickness in 3 different section planes with a cryostat and mounted onto ITO glass slides. […]

Series [2] relates to metastatic castration resistant prostate cancer (mCRPC). Kind of series: Phase I study, decline in serum alkaline phosphatase in patient with mCRPC. The format is in vivo, human. As to conditions: 250 mg/m^2 on days 1, 8, 15 of 28 day cycle. On the procedure: In an ongoing phase I solid tumor dose escalation study, R,R-pyrodach-2 (PT-112) was given to a patient with mCRPC at a dose of 250 mg/m^2, dosed on days 1, 8, and 15 of a 28 day cycle. The patient enrolled in the study with elevated serum alkaline phosphatase levels, a sign of metastatic bone disease.
Upon treatment start, the patient experienced a rapid decline in serum alkaline phosphatase levels, a sign of anticancer drug activity at cancerous bone lesions. These measurements were fractionated to validate the proportion of the result emanating from bone (vs. liver). The bone proportion represented the vast majority of the result, validating the relationship to the metastatic bone disease in this patient.

A short description of series [3]: Phase I solid tumor dose escalation study, safety. The format is in vivo, human. The settings on record: phase I trial; MTD yet to be determined. On the procedure: In an ongoing phase I solid tumor dose escalation study, R,R-pyrodach-2 (PT-112) was given to a patient with mBCC at a dose of 150 mg/m^2, dosed on days 1, 8, and 15 of a 28 day cycle.
The next series relates to Vk12598-engrafted mice. Kind of series: Mice engrafted with bortezomib resistant Vk12598 line, survival. The format is in vivo. The settings on record: 62.5 mg/kg IP twice a week for two weeks; for survival: versus vehicle control (all died by 21 days). As to the method:
(§1) The trans-pyrodach-2 compound is tested on the multiple myeloma mouse model, in particular Vk*MYC mice, which has been reported to be a faithful preclinical model that predicts the clinical activity of drugs in untreated and relapsed MM (Chesi, M., et al., Cancer Cell, 2008, 23, 167-180; Chesi, M., et al., Blood, 2012, 120(2): 376-385). Additionally, the trans-pyrodach-2 compound was tested in mice engrafted with the more aggressive bortezomib resistant Vk12598, and in the multidrug resistant Vk12653 lines, both of which were generated from Vk*MYC mice.
(§2) Additionally, mice were engrafted with the Vk12598 transplantable line and received vehicle (n=11) or (R,R)-pyrodach-2 at a concentration of 62.5 mg/kg (n=12). Mice engrafted with the Vk12653 transplantable line were likewise treated with vehicle (n=10) or (R,R)-pyrodach-2 at 62.5 mg/kg (n=10). Both Vk12598 and Vk12653 engrafted mice were treated twice a week for two weeks via IP injection and monitored via survival and M-spike levels, respectively.

The subject of series [4] is cancerous cell lines, including leukemia and multiple myeloma cell lines resistant to lenalidomide, dexamethasone, and/or bortezomib. Kind of series: In vitro experiments on several cancerous cell lines. Format: cell-based. The settings on record: several different cancerous cell lines. From the text: Thus, these bone tissues are exposed to (R,R)-pyrodach-2 (or derived Pt) at concentrations much higher than what is normally needed to induce cancer cell death.

The subject of the next series is de novo Vk*MYC mice. Briefly: Multiple myeloma mouse model, de novo Vk*MYC mice, M-spike levels. The format is in vivo. On the procedure:
as §1
De novo Vk*MYC mice were aged to one year or longer, and M-spike levels were monitored. After the concentrations of the predominant M-spike reached levels of between about 10 and 70 g/L (estimated by densitometry, comparing M-spike to albumin), mice were candidates for starting drug treatment. Mice brought onto the study were dosed either twice weekly (n=2) or thrice (n=1) weekly at a concentration of 100 or 67 mg/kg (R,R)-pyrodach-2, respectively, administered via IP injection after preparation in a phosphate buffer solution. M-spike levels were measured weekly, and post-treatment measurements were compared and normalized to the pre-treatment baseline measurement. Dosing was halted after two weeks of treatment.

The next series deals with Vk12653-engrafted mice. Kind of series: Mice engrafted with multidrug resistant Vk12653 line, M-spike levels. The format is in vivo. As to conditions: 62.5 mg/kg IP twice a week for two weeks. On the procedure:
as §1, §2

As to `O=P1(O)OP(=O)(O)[O][Pt]2([NH][C@@H]3CCCC[C@H]3[NH]2)[O]1` (stereo partly drawn) [(R,R)-pyrodach-2, trans-(R,R)-1,2-cyclohexanediamine-(dihydrogenpyrophosphato) platinum(II)], the “distribution to bone compartments” value in series [1] is “clearly concentrates in bone compartments at very high concentrations over a long period of time”. In addition, the “serum alkaline phosphatase levels” value in series [2] is recorded as “rapid decline”. The “highest dose deemed to be safe” value in series [3] came out at 360 mg/m^2. Also, the complete responses entry in the series with Vk12598-engrafted mice is reported as “durable, complete response lasting over six months”. The survival entry is “significant increases in survival” in the series on Vk12598-engrafted mice and “increased survival” in the series with Vk12598-engrafted mice (listed as (R,R)-Pyrodach-2). In series [4], the “concentrations sufficient to kill cancer cells” value is on record as “low micromolar”. Moreover, the “results compared with approved MM SoC agents” value in the series on de novo Vk*MYC mice (M-spike response in Vk*MYC model) is listed as “comparable or superior”. In addition, the tolerability result in the series with de novo Vk*MYC mice (given twice or thrice weekly, Vk*MYC mouse model) is reported as “well tolerated”. For the same molecule, the “M-spike levels in comparison to vehicle control” value in the series with Vk12653-engrafted mice is reported as “statistically significant reduction”; in the series with Vk12653-engrafted mice (listed as (R,R)-Pyrodach-2) it was “repression of M-spike level elevations”.

(Values after patent US10668080B2, “Phosphaplatin compounds as therapeutic agents for treatment of bone or blood cancers” (Phosplatin Therapeutics LLC, priority 2017, dated 2020).)
